Measured values: ChEMBL document CHEMBL1201862, “PubChem BioAssay data set” (2004)
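Briefly, cells in 96-well plates were exposed to five compound concentrations for 48 h, and endpoints were estimated by linear interpolation. At the GI50, growth is halved.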 Calls of active or inactive are those of the source. Rule as the data show it: active = GI50 up to about 1.1 µM and inactive = higher.

Experiments:
Experiment in all cases: growth of human tumour cells (NCI), 48 h
[1] = system: PC-3
[2] = system: MDA-MB-231
[3] = system: RPMI-8226
[4] = system: OVCAR-5
[5] = system: UACC-62
[6] = system: OVCAR-8
[7] = system: A498
[8] = system: OVCAR-4
[9] = system: EKVX
[10] = system: ACHN
[11] = system: MDA-MB-435
[12] = system: MCF7
[13] = system: DU-145
[14] = system: UO-31
[15] = system: SN12C
[16] = system: SW-620
[17] = system: Hs-578T
[18] = system: HL-60
[19] = system: NCI-H522

Measured: GI50

CC(C)(C)[Si](C)(C)OCC1OC(n2ccc(=O)[nH]c2=O)C(O[Si](C)(C)C(C)(C)C)/C1=N/O (stereo not drawn)
inactive: [1] 3.99 µM | [2] 12.4 µM | [3] 2.73 µM | [4] 3.9 µM | [5] 5.96 µM | [6] 3.33 µM | [7] 4.97 µM | [8] 4.25 µM | [9] 4.13 µM | [10] 3.2 µM | [11] 3.11 µM | [12] 3.47 µM | [13] 9.29 µM | [14] 3.61 µM | [15] 3.3 µM | [16] 4.38 µM

CC1(C)OC(C(C)(C)O)C(C(C)(C)O)O1 (stereo not drawn)
inactive: [1] > 100 µM | [2] > 100 µM | [3] > 100 µM | [17] > 100 µM | [18] > 100 µM | [4] > 100 µM | [5] > 100 µM | [6] > 100 µM | [19] > 100 µM | [8] > 100 µM | [9] > 100 µM | [10] > 100 µM | [12] > 100 µM | [13] > 100 µM | [14] > 100 µM | [15] > 100 µM | [16] > 100 µM

O=P(O)(O)C=C=C1CCCCC1
inactive: [1] > 100 µM | [17] > 100 µM | [18] 24.3 µM | [4] > 100 µM | [5] > 100 µM | [6] > 100 µM | [19] > 100 µM | [7] > 100 µM | [8] > 100 µM | [9] > 100 µM | [10] > 100 µM | [11] > 100 µM | [12] > 100 µM | [13] > 100 µM | [15] > 100 µM | [16] > 100 µM

CCOC(=O)C(NC(=O)CC(C)C)(Nc1ccc(S(=O)(=O)Nc2nc(C)cc(C)n2)cc1)C(F)(F)F (stereo not drawn)
inactive: [1] > 100 µM | [2] > 100 µM | [3] > 100 µM | [17] > 100 µM | [18] > 100 µM | [4] > 100 µM | [5] > 100 µM | [6] > 100 µM | [19] > 100 µM | [7] > 100 µM | [8] > 100 µM | [9] > 100 µM | [10] > 100 µM | [11] > 100 µM | [13] > 100 µM | [14] > 100 µM | [15] > 100 µM | [16] > 100 µM

O=C1N[C@@H]2CCCC[C@@H]2C12CCCCC2
inactive: [3] > 100 µM | [18] > 100 µM | [4] > 100 µM | [5] > 100 µM | [6] > 100 µM | [7] > 100 µM | [8] > 100 µM | [9] > 100 µM | [10] > 100 µM | [14] > 100 µM | [15] > 100 µM | [16] > 100 µM

COc1ccc(C2=C(Cl)c3cc(OC)c(OC)cc3C2=O)cc1OC
inactive: [2] 16.4 µM | [3] 18.1 µM | [17] 30 µM | [18] 1.8 µM | [4] 19.8 µM | [5] 15.4 µM | [6] 16.9 µM | [19] 12.6 µM | [7] 18.1 µM | [8] 12.1 µM | [9] 20.1 µM | [10] 5.57 µM | [11] 15.9 µM | [12] 13.1 µM | [13] 18.7 µM | [14] 16.6 µM | [15] 18 µM | [16] 12.7 µM

COC(=O)C(=O)C(C(=O)C(=O)Nc1nc2ccc(C)cc2s1)c1nc2ccc([N+](=O)[O-])cc2nc1O (stereo not drawn)
inactive: [1] > 100 µM | [2] > 100 µM | [3] > 100 µM | [17] 93.1 µM | [18] > 100 µM | [4] > 100 µM | [5] > 100 µM | [6] > 100 µM | [19] > 100 µM | [7] > 100 µM | [8] > 10 µM | [9] 68.4 µM | [10] > 100 µM | [11] > 100 µM | [12] > 100 µM | [14] 58.5 µM | [15] > 100 µM | [16] > 100 µM

CC(=O)OC1CCC2C3CCc4c(C)ccc(OS(=O)(=O)c5ccccc5)c4C3CCC12C (stereo not drawn)
inactive: [1] 5.57 µM | [2] 19.3 µM | [3] 21.7 µM | [18] 3.84 µM | [4] 86.1 µM | [5] 26.2 µM | [19] 27.2 µM | [7] 32.5 µM | [8] 21.8 µM | [9] 46.9 µM | [10] 35.9 µM | [11] 41.7 µM | [12] 16.2 µM | [13] 33.1 µM | [14] 21.9 µM | [15] > 100 µM | [16] 63.5 µM

CN(C)c1ccc(O[Si](Oc2ccc(N(C)C)cc2)(Oc2ccc(N(C)C)cc2)Oc2ccc(N(C)C)cc2)cc1
inactive: [3] > 100 µM | [18] 32.9 µM | [4] > 100 µM | [5] > 100 µM | [6] 52.8 µM | [19] 25.7 µM | [7] > 100 µM | [8] > 100 µM | [9] > 100 µM | [10] > 100 µM | [14] > 100 µM | [15] 96.8 µM | [16] > 100 µM

O=c1c2nn[nH]c2nc2n1CC(c1ccccc1)S2 (stereo not drawn)
inactive: [2] > 100 µM | [3] > 100 µM | [18] > 100 µM | [4] > 100 µM | [5] > 100 µM | [6] > 100 µM | [7] > 100 µM | [8] > 100 µM | [9] > 100 µM | [10] > 100 µM | [11] > 100 µM | [12] > 100 µM | [13] > 100 µM | [14] 45.3 µM | [15] > 100 µM | [16] > 100 µM

COc1ccccc1N1C(=O)C2C3c4ccccc4C(OC(C)=O)(c4ccccc43)C2C1=O (stereo not drawn)
inactive: [1] > 100 µM | [2] > 100 µM | [3] > 100 µM | [17] 14.8 µM | [18] > 100 µM | [4] > 100 µM | [5] > 100 µM | [6] 43 µM | [7] > 100 µM | [8] 30.4 µM | [9] > 100 µM | [10] > 100 µM | [12] 72.3 µM | [13] > 100 µM | [14] > 100 µM | [15] > 100 µM | [16] > 100 µM

COc1cccc(C2c3cc4c(cc3OC(N3CCOCC3)C2C)OCO4)c1OC (stereo not drawn)
inactive: [1] 11.3 µM | [3] 6.59 µM | [17] 4.26 µM | [4] 13.1 µM | [5] 15.4 µM | [6] 5.68 µM | [19] 4.26 µM | [9] 18.1 µM | [10] 5.33 µM | [11] 10 µM | [12] 7.91 µM | [13] 3.21 µM | [14] 7.03 µM | [15] 8.07 µM | [16] 5.4 µM
